SMILES strings stand for the structures.

Holding throughout (format): in vivo, mouse
One assay relates to MerCreMer/ZEG (M/Z) mice. Description: Cardiomyocyte replenishment after myocardial infarction, GFP+ / β-Gal+ cardiomyocyte counting. To be noted: for stem cell-mediated cardiomyocyte reconstitution: aged mice (>18 months), 14 days post-MI. As for the experimental part: All experiments involving animals were conducted in accordance with the Guide for the Use and Care of Laboratory Animals, and all animal protocols have been approved by National Cheng Kung University. Sca-1^− GFP, B6.Cg-Tg(Ly6a-GFP)G5Dzk/J and EP2^−/−, B6.129-Ptger2^tm/Brey/J mice were obtained from Jackson Laboratory. The double transgenic MerCreMer/ZEG (M/Z) mice were generated by crossbreeding MerCreMer and Z/EG mice (Jackson Laboratory), which have C57BL/6SV129 and C57BL/6J (N7) background strains, respectively. The MerCreMer mice contain a tamoxifen-inducible Cre recombinase fusion protein driven by the cardiomyocyte-specific α-MHC promoter. In Z/EG mice, GFP replace constitutive β-Gal expression after the removal of a LoxP-flanked stop sequence by Cre.
M/Z mice were subjected to experimental myocardial infarction (MI) one month after the last tamoxifen injection. MI was generated by ligating the left anterior descending coronary artery at 2-3 mm distal to the left atrial appendage. For cell transplantation experiments, intramyocardial injections were performed immediately after coronary ligation. A total of 6×10^5 cardiac Sca-1^+ cells were injected per mouse in two divided injections (5 μl/injection). For BrdU labeling, the mice were subcutaneously implanted with osmotic minipump (Alzet) at the time of surgery and 40 μg/μl of BrdU (Sigma) was administrated. For immunohistological studies, mice were sacrificed and the hearts were harvested at different time points following experimental MI surgery. Cardiac performances were assessed by echocardiography at 28 and 56 days after operation using Vevo 770 (Visualsonics, Toronto, Canada).
To induce Cre recombination to achieve GFP labeling of cardiomyocytes, tamoxifen (Sigma) was dissolved in sunflower oil (Sigma) at a concentration of 5 mg/ml. The tamoxifen solution was injected intraperitoneally into M/Z mice daily at a dosage of 40 μg per 1 g body weight for 14 days, and the same dosage was injected twice daily for short-term labeling using methods known in the art (Laugwitz, K.-L. et al. Nature 433, 647-653 (2005)). All experimental conditions were optimized prior to the PGE2, indomethacin and TGF-β Type I Receptor Kinase Inhibitor II (ALK5 Inhibitor II, ALK5i, Merck) treatments. The mice treated with PGE2 or PGI2 (Vegiopoulos, A. et al. Science 328, 1158-1161 (2010)) (both from Sigma) were injected intraperitoneally with 3.33 ng of drug per 1 g of body weight dissolved in absolute ethanol twice daily. For the indomethacin treatment, mice were fed with water containing indomethacin (Sigma, 15 μg/ml) for different periods of time. The indomethacin-containing water was changed every 3 days. The mice subjected to the celecoxib (Lyons, T. R. et al. Nat. Med. 17, 1109-1115 (2011)) (Sigma) treatment were injected intraperitoneally with 5 μg of drug per 1 g of body weight daily. For ALK5i treatment, aged mice were injected intraperitoneally once per day with 1 μg of drug per 1 g of body weight one day before surgery and continuously until day 10 post-MI. Celecoxib and ALK5i were dissolved in ethanol and DMSO, respectively.
All of the cellular quantifications were performed double-blindly to minimize personal bias. […] For the cardiomyocyte cell counts, 3 sections from each heart, and 2 infarction border zones and 1 remote area from each section were analyzed at a magnification of 200× by light microscopy. Cells with visible sarcomere structures were analyzed, and the average number of cells counted was 171.8±5.8 per photo image. For the small cardiac cell counts, more than five sections from each heart were analyzed at a magnification of 400× using fluorescence microscopy. The average number of cells counted was 17.01±0.99 per photo image, and more than one hundred and fifty cells were analyzed from each heart. As quantification result is the averaged values calculated from the pictures taken from six border zone sections per heart, personal variation has been minimized. […]

In the next assay the test system is Nkx2.5. Description: Quantitative RT-PCR of Nkx2.5 in MI heart and in isolated cardiac Sca-1+ cells. As for the experimental part: (§1) To induce Cre recombination to achieve GFP labeling of cardiomyocytes, tamoxifen (Sigma) was dissolved in sunflower oil (Sigma) at a concentration of 5 mg/ml. The tamoxifen solution was injected intraperitoneally into M/Z mice daily at a dosage of 40 μg per 1 g body weight for 14 days, and the same dosage was injected twice daily for short-term labeling using methods known in the art (Laugwitz, K.-L. et al. Nature 433, 647-653 (2005)). All experimental conditions were optimized prior to the PGE2, indomethacin and TGF-β Type I Receptor Kinase Inhibitor II (ALK5 Inhibitor II, ALK5i, Merck) treatments. The mice treated with PGE2 or PGI2 (Vegiopoulos, A. et al. Science 328, 1158-1161 (2010)) (both from Sigma) were injected intraperitoneally with 3.33 ng of drug per 1 g of body weight dissolved in absolute ethanol twice daily. […]
The total RNA isolated from the ischemic region or remote area of MI hearts was reverse transcribed using the SuperScript III (Invitrogen) system according to the manufacturer's protocol. For quantitative PCR, the SYBR Green reagent (Maestrogen) was used according to the manufacturer's protocol. The analysis of relative gene expression was performed using the 2̂[−delta delta Ct] method and sequence-specific primers designed for semi-quantitative PCR and real-time RT-PCR (FIG. 11). […]

The test system of another assay is EP2. Briefly: Quantitative RT-PCR of PGE2 receptors at infarct region of MI heart. As for the experimental part:
as §1
(§2) The total RNA isolated from the ischemic region or remote area of MI hearts was reverse transcribed using the SuperScript III (Invitrogen) system according to the manufacturer's protocol. For quantitative PCR, the SYBR Green reagent (Maestrogen) was used according to the manufacturer's protocol. The analysis of relative gene expression was performed using the 2̂[−delta delta Ct] method and sequence-specific primers designed for semi-quantitative PCR and real-time RT-PCR (FIG. 11).

In a further assay the test system is CD11b. Briefly: Quantitative RT-PCR of myeloid cell marker CD11b in infarct region. The settings on record: both young and old mice; day 3 post-infarction. As for the experimental part:
as §1, §2

With `CCCCC[C@H](O)/C=C/C1C(O)CC(=O)C1C/C=C\CCCC(=O)O` (stereo partly drawn) [PGE2, (5Z,11α,13E,15S)-7-[3-hydroxy-2-(3-hydroxyoct-1-enyl)-5-oxo-cyclopentyl]hept-5-enoic acid], the “stem cell-mediated cardiomyocyte reconstitution” value was “successfully recover” in the assay on MerCreMer/ZEG (M/Z) mice (border zone, P<0.01 versus sham or MI) and “not in the remote area” in the assay on MerCreMer/ZEG (M/Z) mice (remote area). Moreover, the “rescue of cardiomyocyte replenishment compared to indomethacin treatment alone” value in the assay on MerCreMer/ZEG (M/Z) mice (border zone, PGE2 plus indomethacin, P<0.01) is listed as “about 10%”. The “increase of cardiomyocyte replenishment compared to the vehicle control” value in the assay with MerCreMer/ZEG (M/Z) mice (border zone, young mice, 3.33 ng per 1 g i.p. twice daily for 14 days, P<0.01) is given as “about 9%”. The “expression of Nkx2.5 in Sca-1+ cells” value with Nkx2.5 (cardiac Sca-1+ cells isolated on day 3 after injury) is on record as “elevated”. In the assay with Nkx2.5 (young mice, fold change normalized to sham), the “expression of Nkx2.5 in the MI heart” value is reported as “enhances”. In addition, in the assay with EP2, the “expression of PGE2 receptor EP2 in hearts after MI” value is “significantly induced”. The CD11b level entry with CD11b was “induced”.

The values above are taken from patent US20130331389A1, “Methods and Compositions for Cardiomyocyte Replenishment by Endogenous and Progenitor Stem Cells” (NATIONAL CHENG KUNG UNIVERSITY, priority 2012, published 2013).
